Assay results as given in ChEMBL document CHEMBL1221210, “A Cdc7 kinase inhibitor restricts initiation of DNA replication and has antitumor activity” (Nat Chem Biol, 2008).

Experiments:
HeLa [1] = experiment: Inhibition of DNA replication in human HeLa cells assessed as interorigin distance between homogenous DNA fibers at 2 uM after 4 hrs by immunofluorescence assay; assay type: functional
HeLa [2] = experiment: Inhibition of DNA replication in human HeLa cells assessed as interorigin distance between homogenous DNA fibers at 2 uM after 6 hrs by immunofluorescence assay; assay type: functional
HeLa [3] = experiment: Inhibition of DNA replication in human HeLa cells assessed as interorigin distance between homogenous DNA fibers at 5 uM after 6 hrs by immunofluorescence assay; assay type: functional
HeLa [4] = experiment: Inhibition of DNA replication in human HeLa cells assessed as interorigin distance between homogenous DNA fibers at 20 uM after 2 hrs by immunofluorescence assay; assay type: functional
HeLa [5] = experiment: Inhibition of DNA replication in human HeLa cells assessed as increase in replication fork speed per min at 20 uM after 2 hrs by immunofluorescence assay; assay type: functional
HeLa [6] = experiment: Inhibition of DNA replication in human HeLa cells assessed as increase in replication fork speed per min at 20 uM after 6 hrs by immunofluorescence assay; assay type: functional
HeLa [7] = experiment: Inhibition of DNA synthesis in human HeLa cells assessed as Brd-U uptake at 5 uM by FACS analysis; assay type: functional; design: scale not given: the % may be the effect or the level left
Mus musculus = experiment: AUC in SCID mouse carrying human HL60 cells at 20 mg/kg, iv after 10 hrs; assay type: ADME, organism-based, HL-60; design: time < 10 hr, dose 20 mg/kg, route intravenous; conditions: in vivo
[8] = Clearance in rat carrying DMBA-induced mammary carcinoma at 10 mg/kg, iv after 10 hrs; assay type: ADME, organism-based; design: dose 10 mg/kg, route intravenous; conditions: in vivo
[9] = Clearance in SCID mouse carrying human HL60 cells at 20 mg/kg or 30 mg/kg, iv after 10 hrs; assay type: ADME, organism-based, HL-60; conditions: in vivo
[10] = biological target: Inhibitor of nuclear factor kappa-B kinase subunit beta (Homo sapiens, UniProt O14920); experiment: Inhibition of IKK2
[11] = biological target: Protein kinase C beta type (Homo sapiens, UniProt P05771); experiment: Inhibition of PKCbeta
SF-268 [12] = experiment: Antiproliferative activity against p53 deficient human SF268 cells after 72 hrs; assay type: functional, cell-based; conditions: SF-268, 72 h
HeLa [13] = experiment: Antiproliferative activity against p53 deficient human HeLa cells after 72 hrs; assay type: functional, cell-based
SW480 = experiment: Antiproliferative activity against p53 deficient human SW480 cells after 72 hrs by proliferative assay; assay type: functional, cell-based; conditions: SW480, 72 h
HCT-116 [14] = experiment: Antiproliferative activity against human HCT116 cells expressing p53 gene after 72 hrs by proliferative assay; assay type: functional, cell-based; conditions: HCT-116, 72 h
HeLa [15] = experiment: Induction of cell cycle arrest in p53 deficient human HeLa cells assessed as assessed as accumulation at subG1 phase at 5 uM after 24hrs by FACS analysis; assay type: functional
[16] = Induction of cell cycle arrest in p53 deficient human A2780/E6 cells as accumulation at subG1 phase at 5 uM after 24hrs by FACS analysis; assay type: functional
OVCAR-8 [17] = experiment: Induction of cell cycle arrest in p53 deficient human OVCAR8 cells assessed as accumulation at subG1 phase at 5 uM after 24hrs by FACS analysis; assay type: functional
HCT-15 [18] = experiment: Induction of cell cycle arrest in human HCT15 cells expressing p53 gene assessed as accumulation at subG1 phase at 5 uM after 24hrs by FACS analysis; assay type: functional
SF-539 = experiment: Induction of cell cycle arrest in human SF539 cells expressing p53 gene assessed as accumulation at subG1 phase at 5 uM after 24hrs by FACS analysis; assay type: functional
A2780 [19] = experiment: Induction of cell cycle arrest in human A2780 cells expressing p53 gene assessed as accumulation at subG1 phase at 5 uM after 24hrs by FACS analysis; assay type: functional
SF-268 [20] = experiment: Induction of cell cycle arrest in p53 deficient human SF268 cells assessed as accumulation at subG1 phase at 10 uM after 24 hrs FACS analysis; assay type: functional
COLO 205 [21] = experiment: Induction of cell cycle arrest in p53 deficient human COLO205 cells assessed as accumulation at subG1 phase at 10 uM after 24hrs by FACS analysis; assay type: functional
[22] = Induction of cell cycle arrest in p53 deficient human HCT116-E6 cells assessed as accumulation at subG1 phase at 10 uM after 24hrs by FACS analysis; assay type: functional
HCT-15 [23] = experiment: Induction of cell cycle arrest in human HCT15 cells expressing p53 gene assessed as accumulation at subG1 phase at 10 uM after 24 hrs by FACS analysis; assay type: functional
U2OS [24] = experiment: Induction of cell cycle arrest in human U2OS cells expressing p53 gene assessed as accumulation at subG1 phase at 10 uM after 24 hrs by FACS analysis; assay type: functional
PC-3 = experiment: Induction of cell cycle arrest in human PC3 cells expressing p53 gene assessed as accumulation at subG1 phase at 10 uM after 24 hrs by FACS analysis; assay type: functional
NHDF [25] = experiment: Induction of cell cycle arrest in NHDF expressing p53 gene assessed as accumulation at subG1 phase at 10 uM after 24 hrs by FACS analysis; assay type: cell-based; conditions: human
K562 = experiment: Induction of cell cycle arrest in p53 deficient human K562 cells assessed as residual DNA synthesis at 5 uM after 24hrs by FACS analysis; assay type: functional
HeLa [26] = experiment: Induction of cell cycle arrest in p53 deficient human HeLa cells assessed as residual DNA synthesis at 5 uM after 24hrs by FACS analysis; assay type: functional
[27] = Induction of cell cycle arrest in p53 deficient human HCT116-E6 cells assessed as residual DNA synthesis at 5 uM after 24 hrs by FACS analysis; assay type: functional
Jurkat = experiment: Induction of cell cycle arrest in p53 deficient human Jurkat cells assessed as residual DNA synthesis at 5 uM after 24 hrs by FACS analysis; assay type: functional
OVCAR-8 [28] = experiment: Induction of cell cycle arrest in p53 deficient human OVCAR8 cells assessed as residual DNA synthesis at 5 uM after 24hrs by FACS analysis; assay type: functional
HCT-116 [29] = experiment: Induction of cell cycle arrest in human HCT116 cells expressing p53 gene assessed as residual DNA synthesis at 5 uM after 24 hrs by FACS analysis; assay type: functional
HCT-15 [30] = experiment: Induction of cell cycle arrest in human HCT15 cells expressing p53 gene assessed as residual DNA synthesis at 5 uM after 24 hrs by FACS analysis; assay type: functional
U2OS [31] = experiment: Induction of cell cycle arrest in human U2OS cells expressing p53 gene assessed as residual DNA synthesis at 5 uM after 24 hrs by FACS analysis; assay type: functional
A2780 [32] = experiment: Induction of cell cycle arrest in human A2780 cells expressing p53 gene assessed as residual DNA synthesis at 5 uM after 24 hrs by FACS analysis; assay type: functional
NHDF [33] = experiment: Induction of cell cycle arrest in NHDF expressing p53 gene assessed as residual DNA synthesis at 5 uM after 24 hrs by FACS analysis; assay type: cell-based; conditions: human
COLO 205 [34] = experiment: Induction of cell cycle arrest in p53 deficient human COLO205 cells assessed as residual DNA synthesis at 10 uM after 24 hrs by FACS analysis; assay type: functional
A2780 [35] = experiment: Induction of cell cycle arrest in human A2780 cells expressing p53 gene assessed as residual DNA synthesis at 10 uM after 24 hrs by FACS analysis; assay type: functional

Chain of Inhibitor of nuclear factor kappa-B kinase subunit beta (O14920 whole entry): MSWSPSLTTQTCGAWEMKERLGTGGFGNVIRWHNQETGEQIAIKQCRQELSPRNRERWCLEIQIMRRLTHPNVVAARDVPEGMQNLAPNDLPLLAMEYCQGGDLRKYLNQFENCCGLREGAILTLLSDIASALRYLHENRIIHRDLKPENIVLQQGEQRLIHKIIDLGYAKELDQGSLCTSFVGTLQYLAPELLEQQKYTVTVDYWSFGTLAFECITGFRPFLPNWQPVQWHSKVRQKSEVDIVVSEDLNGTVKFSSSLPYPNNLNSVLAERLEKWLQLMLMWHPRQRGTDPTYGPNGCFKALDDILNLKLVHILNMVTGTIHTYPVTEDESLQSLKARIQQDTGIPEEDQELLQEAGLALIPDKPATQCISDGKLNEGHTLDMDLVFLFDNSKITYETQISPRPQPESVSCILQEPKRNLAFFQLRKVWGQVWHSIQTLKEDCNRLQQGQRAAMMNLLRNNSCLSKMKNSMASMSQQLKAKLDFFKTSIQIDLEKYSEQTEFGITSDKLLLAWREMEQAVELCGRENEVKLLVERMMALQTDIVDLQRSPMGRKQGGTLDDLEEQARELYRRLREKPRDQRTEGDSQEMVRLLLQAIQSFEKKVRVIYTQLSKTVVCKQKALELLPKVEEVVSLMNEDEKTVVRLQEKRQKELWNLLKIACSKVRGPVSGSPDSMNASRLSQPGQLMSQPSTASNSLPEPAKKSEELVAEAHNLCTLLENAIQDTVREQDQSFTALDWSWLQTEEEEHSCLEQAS
Chain of Protein kinase C beta type (P05771 whole entry): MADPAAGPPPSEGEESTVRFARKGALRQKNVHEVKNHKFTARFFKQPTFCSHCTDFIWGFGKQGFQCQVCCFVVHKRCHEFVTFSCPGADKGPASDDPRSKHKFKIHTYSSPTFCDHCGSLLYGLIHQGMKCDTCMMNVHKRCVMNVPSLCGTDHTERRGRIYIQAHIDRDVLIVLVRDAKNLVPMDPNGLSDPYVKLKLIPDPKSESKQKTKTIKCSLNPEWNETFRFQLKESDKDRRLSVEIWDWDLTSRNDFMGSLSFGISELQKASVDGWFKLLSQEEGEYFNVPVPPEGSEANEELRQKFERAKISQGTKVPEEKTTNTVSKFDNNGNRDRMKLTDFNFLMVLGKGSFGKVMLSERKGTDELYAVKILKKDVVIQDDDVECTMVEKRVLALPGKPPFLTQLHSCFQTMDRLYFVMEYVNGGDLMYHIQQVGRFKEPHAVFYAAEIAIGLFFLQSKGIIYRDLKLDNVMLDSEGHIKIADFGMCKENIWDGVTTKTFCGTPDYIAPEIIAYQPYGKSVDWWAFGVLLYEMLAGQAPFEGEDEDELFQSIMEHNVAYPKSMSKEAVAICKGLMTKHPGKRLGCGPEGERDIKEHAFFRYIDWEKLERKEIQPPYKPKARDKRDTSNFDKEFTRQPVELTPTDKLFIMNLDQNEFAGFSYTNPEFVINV

Compound: O=C1NCCc2[nH]c(-c3ccncc3)cc21
- Activity (HeLa [1]): 236 kilobase
- Activity (HeLa [2]): 241 kilobase
- Activity (HeLa [3]): 293 kilobase
- Activity (HeLa [4]): 226 kilobase
- Activity (HeLa [5]): 1.92 kilobase
- Activity (HeLa [6]): 2.28 kilobase
- Activity (HeLa [7]): 37%
- AUC (Mus musculus): 47 µM·h
- clearance [8]: 30 mL/min/kg
- clearance [9]: 30 mL/min/kg
- IC50 [10]: > 10000 nM
- IC50 [11]: > 10000 nM
- IC50 (SF-268 [12]): 860 nM
- IC50 (HeLa [13]): 1830 nM
- IC50 (SW480): 2670 nM
- IC50 (HCT-116 [14]): 970 nM
- Activity (HeLa [15]): 10%
- Activity [16]: >20%
- Activity (OVCAR-8 [17]): 3%
- Activity (HCT-15 [18]): 3%
- Activity (SF-539): 3%
- Activity (A2780 [19]): >20%
- Activity (SF-268 [20]): 3%
- Activity (COLO 205 [21]): >20%
- Activity [22]: 3%
- Activity (HCT-15 [23]): 3%
- Activity (U2OS [24]): 3%
- Activity (PC-3): 3%
- Activity (NHDF [25]): < 3%
- Activity (K562): 10%
- Activity (HeLa [26]): <3%
- Activity [27]: 3%
- Activity (Jurkat): <3%
- Activity (OVCAR-8 [28]): <3%
- Activity (HCT-116 [29]): 3%
- Activity (HCT-15 [30]): <3%
- Activity (U2OS [31]): <3%
- Activity (A2780 [32]): <3%
- Activity (NHDF [33]): < 3%
- Activity (COLO 205 [34]): 3%
- Activity (A2780 [35]): <3%
